This test addresses T1, CDK8/cyclin C (Homo sapiens, UniProt P49336).
T1 construct: purchased Thermo Fisher Scientific (Life Technologies) SelectScreen
The test can be described thus: SelectScreen LanthaScreen. The format is binding. The following applies: 1 µM. The method in brief: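 NU5455 was profiled across the SelectScreen Broad panel of kinase activity and binding assays. Z'LYTE reactions such as CSF1R ran at apparent Km ATP, while the Adapta CAMK1 assay used ATP listed as 10. Values are given as percent.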
(Time-resolved FRET reads energy transfer from a long-lived donor to a nearby acceptor.)

The structures appear in SMILES notation.

T1 sequence (P49336 whole entry): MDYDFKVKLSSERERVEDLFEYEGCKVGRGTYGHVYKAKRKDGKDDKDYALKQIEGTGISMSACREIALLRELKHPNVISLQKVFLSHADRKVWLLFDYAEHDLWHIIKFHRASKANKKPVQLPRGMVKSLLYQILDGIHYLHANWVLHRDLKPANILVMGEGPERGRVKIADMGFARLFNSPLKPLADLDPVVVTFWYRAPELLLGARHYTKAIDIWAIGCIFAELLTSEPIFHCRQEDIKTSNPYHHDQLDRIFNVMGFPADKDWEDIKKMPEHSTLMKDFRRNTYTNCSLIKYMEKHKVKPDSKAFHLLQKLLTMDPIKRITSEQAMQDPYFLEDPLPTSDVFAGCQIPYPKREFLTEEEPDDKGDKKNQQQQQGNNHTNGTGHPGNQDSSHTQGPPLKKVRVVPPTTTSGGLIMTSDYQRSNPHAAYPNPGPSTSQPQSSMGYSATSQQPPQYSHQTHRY
T1 sequence (P24863 whole entry partner): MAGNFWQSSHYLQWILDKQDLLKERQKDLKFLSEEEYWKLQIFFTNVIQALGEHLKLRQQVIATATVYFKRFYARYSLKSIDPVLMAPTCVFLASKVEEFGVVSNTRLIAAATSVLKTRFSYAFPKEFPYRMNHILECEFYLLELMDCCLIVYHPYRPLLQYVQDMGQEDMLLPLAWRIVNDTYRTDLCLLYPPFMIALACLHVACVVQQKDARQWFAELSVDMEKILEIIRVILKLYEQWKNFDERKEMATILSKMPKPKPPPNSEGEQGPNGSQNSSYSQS

With `CN(C(=O)CN1CCOCC1)c1ccc2sc3c(-c4cccc5c(=O)cc(N6CC7CCC(C6)O7)oc45)cccc3c2c1` [NU5455], the “% displacement” value is given as 0.1%.

The record behind these values is publication PMC6934184, “Selective DNA-PKcs inhibition extends the therapeutic index of localized radiotherapy and chemotherapy” (The Journal of Clinical Investigation, 2019).
